Measured values from ChEMBL document CHEMBL5614376, “Discovery of MT-1207: A Novel, Potent Multitarget Inhibitor as a Promising Clinical Candidate for the Treatment of Hypertension” (J Med Chem, 2024).
The source made the active and inactive calls. The rule behind the calls is not given here.

What was measured:
[1] = target: T1, Alpha-1A adrenergic receptor (Homo sapiens) (UniProt P35348); assay: Displacement of [3H]prazosin from recombinant human alpha 1A adrenoceptor extracted from CHO cell membrane at 10 nM incubated for 60 mins by radioligand binding assay relative to control; format: cell membranes
T1 sequence (whole entry): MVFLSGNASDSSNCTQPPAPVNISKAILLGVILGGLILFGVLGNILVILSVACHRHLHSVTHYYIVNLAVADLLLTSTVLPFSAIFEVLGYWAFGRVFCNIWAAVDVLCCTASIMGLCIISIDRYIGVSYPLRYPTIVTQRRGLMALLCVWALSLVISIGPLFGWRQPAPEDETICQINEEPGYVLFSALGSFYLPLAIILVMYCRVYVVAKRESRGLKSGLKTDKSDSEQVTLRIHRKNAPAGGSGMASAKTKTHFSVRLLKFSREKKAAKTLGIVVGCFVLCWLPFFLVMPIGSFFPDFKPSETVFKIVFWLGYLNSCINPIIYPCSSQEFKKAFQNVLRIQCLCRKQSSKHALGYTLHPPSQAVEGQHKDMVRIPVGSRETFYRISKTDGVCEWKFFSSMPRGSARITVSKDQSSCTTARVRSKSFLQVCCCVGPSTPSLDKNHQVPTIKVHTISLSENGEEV

[2] = target: T1, Alpha-1A adrenergic receptor (Homo sapiens); assay: Displacement of [3H]prazosin from recombinant human alpha 1A adrenoceptor extracted from CHO cell membrane at 1 nM incubated for 60 mins by radioligand binding assay relative to control; format: cell membranes
[3] = target: T2, 5-hydroxytryptamine receptor 2A (Homo sapiens, UniProt P28223); assay: Displacement of [3H]Ketanserin from recombinant human 5-HT2A receptor extracted from CHO cell membrane at 100 nM incubated for 60 mins by radioligand binding assay relative to control; format: cell membranes
T2 sequence (P28223 whole entry): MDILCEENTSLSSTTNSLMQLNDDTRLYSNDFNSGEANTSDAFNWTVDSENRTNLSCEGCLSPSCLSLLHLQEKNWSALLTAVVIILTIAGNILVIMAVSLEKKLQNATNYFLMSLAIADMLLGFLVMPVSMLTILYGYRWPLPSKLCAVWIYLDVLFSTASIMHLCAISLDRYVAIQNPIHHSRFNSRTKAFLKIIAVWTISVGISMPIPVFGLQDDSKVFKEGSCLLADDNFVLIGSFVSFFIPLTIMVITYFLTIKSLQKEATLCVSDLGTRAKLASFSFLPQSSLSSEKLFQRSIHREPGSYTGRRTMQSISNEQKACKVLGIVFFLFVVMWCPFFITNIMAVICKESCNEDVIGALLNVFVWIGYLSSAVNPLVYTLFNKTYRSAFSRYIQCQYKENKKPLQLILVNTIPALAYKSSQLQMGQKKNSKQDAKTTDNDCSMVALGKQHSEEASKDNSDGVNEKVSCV

[4] = target: T1, Alpha-1A adrenergic receptor (Homo sapiens); assay: Displacement of [3H]prazosin from recombinant human alpha 1A adrenoceptor extracted from CHO cell membrane at 100 nM incubated for 60 mins by radioligand binding assay relative to control; format: cell membranes
[5] = target: T2, 5-hydroxytryptamine receptor 2A; assay: Displacement of [3H]Ketanserin from recombinant human 5-HT2A receptor extracted from CHO cell membrane at 10 nM incubated for 60 mins by radioligand binding assay relative to control; format: cell membranes
[6] = target: T2, 5-hydroxytryptamine receptor 2A; assay: Displacement of [3H]Ketanserin from recombinant human 5-HT2A receptor extracted from CHO cell membrane at 1 nM incubated for 60 mins by radioligand binding assay relative to control; format: cell membranes
Rattus norvegicus [7] = assay: Effect on serum creatinine level in 2K2C renovascular hypertensive Sprague-Dawley rat model at 20 mg/kg, po measured after 9 weeks by biochemical analysis; format: functional, organism-based
Rattus norvegicus [8] = assay: Antihypertensive activity in 2K2C renovascular hypertensive Sprague-Dawley rat model assessed as systolic blood pressure at 20 mg/kg, po measured after 9 weeks (Rvb ~ 202 mmHg); format: functional
Rattus norvegicus [9] = assay: Effect on serum urea level in 2K2C renovascular hypertensive Sprague-Dawley rat model at 20 mg/kg, po measured after 9 weeks by biochemical analysis; format: functional, organism-based

Row | Structure (SMILES) | inhibition [1] | inhibition [2] | inhibition ([4]; filed as antagonist) | inhibition ([1]; filed as antagonist) | inhibition ([3]; filed as antagonist) | inhibition ([5]; filed as antagonist) | inhibition ([2]; filed as antagonist) | further results
1 | FC(F)(F)c1cccc(N2CCN(CCCCn3nc4ccccc4n3)CC2)c1 | -1.54% | -7.22% | 53% |  |  |  |  | inhibition [3]: 38.1%
2 | Fc1ccc2c(C3CCN(CCCn4nc5ccccc5n4)CC3)noc2c1 |  | 28.9% | 99% | 83.2% | 98.3% | 98.7% |  | inhibition ([6]; filed as antagonist): 79.7%
3 | Fc1ccc2c(C3CCN(CCCCn4cnc5ccccc54)CC3)noc2c1 |  |  | 100% | 100% | 96% | 81.9% | 80.7% | inhibition [6]: -3.85%
4 | Clc1cccc(N2CCN(CCCCn3cnc4ccccc43)CC2)c1 |  | 15.4% | 98.5% | 71.6% | 67.2% |  |  | inhibition [5]: -1.87%
5 | Fc1ccc2c(N3CCN(CCCn4nc5ccccc5n4)CC3)noc2c1 |  | 29.5% | 99.1% | 65.1% | 99.1% | 79.1% |  | inhibition [6]: 5.91%
6 | Fc1ccc2c(C3CCN(CCCCn4nnc5ccccc54)CC3)noc2c1 |  |  | 101% | 100% | 98.2% | 89.5% | 93.8% | inhibition [6]: 39.9%
7 | O=C(c1ccc(F)cc1)C1CCN(CCn2c(=O)[nH]c3ccccc3c2=O)CC1 |  |  |  |  |  | 89.6% |  | inhibition ([6]; filed as antagonist): 41.2%
8 | Fc1ccc2c(N3CCN(CCCCn4nc5ccccc5n4)CC3)noc2c1 |  |  | 101% | 99% | 96.5% | 61.1% | 83.1% | 
9 | c1ccc(N2CCN(CCCCn3nnc4ccccc43)CC2)cc1 | 35% | -9.51% | 79.6% |  |  |  |  | inhibition [3]: 39.2%
10 | FC(F)(F)c1cccc(N2CCN(CCCn3nc4ccccc4n3)CC2)c1 | -9.63% | -8.07% |  |  | 44.7% |  |  | inhibition [4]: 20.7%
11 | FC(F)(F)c1cccc(N2CCN(CCCCn3nnc4ccccc43)CC2)c1 | 38% | -5.08% | 72.5% |  | 63.4% |  |  | inhibition [5]: 0%
12 | c1ccc2c(c1)nnn2CCCCN1CCN(c2noc3ccccc23)CC1 |  |  | 100% | 99.2% | 88.8% |  | 85.9% | inhibition [5]: 38.3%
13 | CCCCc1nc(Cl)c(CO)n1Cc1ccc(-c2ccccc2-c2nnn[nH]2)cc1 [LOSARTAN] |  |  |  |  |  |  |  | Activity (Rattus norvegicus [7]): Active; Activity (Rattus norvegicus [8]): 176 mmHg; Activity (Rattus norvegicus [9]): Active
14 | FC(F)(F)c1cccc(N2CCN(CCCCCn3nnc4ccccc43)CC2)c1 | 13% |  | 75.3% |  | 71.4% |  |  | inhibition [5]: 7.37%
15 | c1ccc2c(c1)nnn2OCCCN1CCN(c2nsc3ccccc23)CC1 |  |  | 93.7% | 82.3% | 100% | 81.3% | 44.2% | 
16 | Clc1cccc(N2CCN(CCCCn3cnc4ccccc43)CC2)c1Cl | 27% | 11.7% | 78% |  | 55% |  |  | inhibition [5]: -5.13%
17 | FC(F)(F)c1cccc(N2CCN(CCCCCCn3nc4ccccc4n3)CC2)c1 | 7.06% |  |  |  |  |  |  | inhibition [3]: 9.94%; inhibition [4]: 30.3%
18 | Fc1cccc(N2CCN(CCCCn3nnc4ccccc43)CC2)c1 |  | -7.76% | 91% | 46.6% | 54% |  |  | inhibition [5]: -2.88%
19 | c1ccc2c(c1)ncn2CCCCN1CCN(c2nsc3ccccc23)CC1 |  |  | 99.8% | 98.9% | 99.6% | 93.4% | 78% | inhibition [6]: 15.4%
20 | Fc1ccc2c(N3CCN(CCCn4cnc5ccccc54)CC3)noc2c1 |  |  | 100% | 98.4% | 98% | 87.3% | 52.8% | inhibition [6]: 24.9%
21 | Fc1ccc2c(C3CCN(CCCn4nnc5ccccc54)CC3)noc2c1 |  | 39.8% | 98.8% | 87.7% | 98.7% | 96.4% |  | inhibition ([6]; filed as antagonist): 76.9%
22 | FC(F)(F)c1cccc(N2CCN(CCCCn3cnc4ccccc43)CC2)c1 | 36.4% | -1.42% | 89.3% |  |  |  |  | inhibition [3]: 37.7%

Row | Structure (SMILES) | inhibition [1] | inhibition [2] | inhibition ([4]; filed as antagonist) | inhibition ([1]; filed as antagonist) | inhibition ([3]; filed as antagonist) | inhibition ([5]; filed as antagonist) | inhibition ([2]; filed as antagonist) | further results
23 | FC(F)(F)c1cccc(N2CCN(CCCn3nnc4ccccc43)CC2)c1 | -2.01% |  | 61.3% |  | 64.5% |  |  | inhibition [5]: -6.65%
24 | FC(F)(F)c1cccc(N2CCN(CCCCCCn3nnc4ccccc43)CC2)c1 | 4.15% |  | 63.3% |  | 53.5% |  |  | inhibition [5]: 11.3%; inhibition [6]: -9.54%
25 | Fc1ccc2ncn(CCCCN3CCN(c4cccc(C(F)(F)F)c4)CC3)c2c1 | 34.7% | -7.67% | 79.7% |  |  |  |  | inhibition [3]: 26.1%
26 | Fc1ccc2c(N3CCN(CCCCn4cnc5ccccc54)CC3)noc2c1 |  |  | 101% | 100% | 97% | 83.1% | 89.6% | inhibition [6]: 22.6%
27 | FC(F)(F)c1cccc(N2CCN(CCCCCn3nc4ccccc4n3)CC2)c1 | 14.8% | 8.76% | 44.8% |  |  |  |  | inhibition [3]: 14%
28 | Fc1ccc2c(N3CCN(CCCCn4nnc5ccccc54)CC3)noc2c1 |  |  | 96.9% | 95% | 95.4% | 71.5% | 98.6% | 
29 | Clc1cccc(N2CCN(CCCCn3nnc4ccccc43)CC2)c1 |  | 5.9% | 97.4% | 74.2% | 77.6% |  |  | inhibition [5]: 17.2%
30 | Cc1nc2ccccc2n1CCCCN1CCN(c2cccc(C(F)(F)F)c2)CC1 |  | 6.89% | 98.9% | 79.8% |  |  |  | inhibition [3]: -5.62%
31 | c1ccc2c(c1)nnn2CCCN1CCN(c2nsc3ccccc23)CC1 |  |  | 96.4% | 82.6% | 98.5% | 89.4% | 44.5% | inhibition [6]: 8.15%
32 | c1ccc2nn(CCCCN3CCN(c4nsc5ccccc45)CC3)nc2c1 |  |  | 100% | 96.2% | 101% | 78.3% | 68.8% | inhibition [6]: -9.49%
33 | Fc1ccc2c(C3CCN(CCCCn4nc5ccccc5n4)CC3)noc2c1 |  |  | 99.9% | 99.9% | 98.9% | 82% | 83.4% | inhibition [6]: -5.42%
34 | COc1cccc(OC)c1OCCNCC1COc2ccccc2O1 (stereo not drawn) |  |  | 102% | 87% |  |  | 46.3% | 
35 | FC(F)(F)c1cccc(N2CCN(CCn3nnc4ccccc43)CC2)c1 |  |  |  |  |  |  |  | inhibition [3]: 18.9%; inhibition [4]: 3.42%
36 | c1ccc2nn(CCCCN3CCN(c4noc5ccccc45)CC3)nc2c1 |  |  | 99% | 94% | 84.9% |  | 69.5% | inhibition [5]: 5.31%
37 | Fc1cccc(N2CCN(CCCCn3cnc4ccccc43)CC2)c1 | 21.3% | -3.72% | 80.1% |  |  |  |  | inhibition [3]: 1.87%
38 | COc1ccccc1N1CCN(CCCOc2cccc(C)c2C)CC1 | 7.19% |  | 40.1% |  |  |  |  | inhibition [3]: 37.7%
39 | Fc1ccc2c(C3CCN(CCCn4cnc5ccccc54)CC3)noc2c1 |  |  | 99.9% | 97.5% | 94.2% | 76% | 69.7% | inhibition [6]: 15.9%
40 | c1ccc2c(c1)ncn2CCCN1CCN(c2nsc3ccccc23)CC1 |  | 24.6% | 98% | 74.9% | 94% | 68.8% |  | inhibition [6]: -1.8%
41 | COc1ccccc1N1CCN(CCCCn2cnc3ccccc32)CC1 | 22.8% | -0.88% | 86.9% |  | 68.7% |  |  | inhibition [5]: -4.99%
42 | Fc1ccc2c(N3CCN(CCCn4nnc5ccccc54)CC3)noc2c1 |  |  | 95.3% | 86.2% | 95.8% | 80.9% | 46% | 
43 | COc1cccc(N2CCN(CCCCn3cnc4ccccc43)CC2)c1 |  | -1.06% | 95.6% | 55% |  |  |  | inhibition [3]: 13.1%
